{"source": "ChEMBL document CHEMBL1135093", "about": "“Phthalazine PDE4 inhibitors. Part 3: the synthesis and in vitro evaluation of derivatives with a hydrogen bond acceptor” (Bioorg Med Chem Lett, 2002)", "type_in_all_cases": "protein assay", "key": {"[1]": {"target": "T1, Phosphodiesterase 4 (Homo sapiens, UniProt P27815+Q08499+Q07343+Q08493)", "experiment": "Affinity for rolipram binding site (RBS) of human neutrophil phosphodiesterase type IV (PDE4)"}, "[2]": {"target": "T1, Phosphodiesterase 4", "experiment": "Inhibition of human neutrophil phosphodiesterase type IV (PDE4)"}, "[3]": {"target": "T1, Phosphodiesterase 4", "experiment": "Selectivity for rolipram binding site over phosphodiesterase 4"}, "[4]": {"target": "T1, Phosphodiesterase 4", "experiment": "Inhibition of rolipram binding to phosphodiesterase type IV (PDE4) at 10e-7 M"}, "[5]": {"target": "T1, Phosphodiesterase 4", "experiment": "Inhibition of human phosphodiesterase type IV (PDE4) at 10e-7 M"}, "[6]": {"target": "T1, Phosphodiesterase 4", "experiment": "Inhibition of rolipram binding to phosphodiesterase type IV (PDE4)"}, "[7]": {"target": "T1, Phosphodiesterase 4", "experiment": "Inhibition of rolipram binding to phosphodiesterase type IV (PDE4) at 10e-6 M"}}}
{"smiles": "COc1ccc2c(c1)CN(C(C)=O)N=C2Cc1c(Cl)cncc1Cl", "values": [{"measurement": "Ki", "setting": "[1]", "value": 397, "unit": "nM"}, {"measurement": "IC50", "setting": "[2]", "value": 51, "unit": "nM"}, {"measurement": "Ratio", "setting": "[3]", "value": 7.8}]}
{"smiles": "COc1ccc2c(c1OC1CCCC1)CN(C(C)=O)N=C2Cc1c(Cl)cncc1Cl", "values": [{"measurement": "Ki", "setting": "[1]", "value": 128, "unit": "nM"}, {"measurement": "IC50", "setting": "[2]", "value": 30, "unit": "nM"}, {"measurement": "Ratio", "setting": "[3]", "value": 4.3}]}
{"smiles": "CCC(=O)N1Cc2cc(OC)ccc2C(Cc2c(Cl)cncc2Cl)=N1", "values": [{"measurement": "Ki", "setting": "[1]", "value": 237, "unit": "nM"}, {"measurement": "IC50", "setting": "[2]", "value": 28, "unit": "nM"}, {"measurement": "Ratio", "setting": "[3]", "value": 8.5}]}
{"smiles": "COc1ccc2c(c1)CN(C(=O)c1ccccc1)N=C2Cc1c(Cl)cncc1Cl", "values": [{"measurement": "Binding", "setting": "[4]", "value": 17, "unit": "%"}, {"measurement": "IC50", "setting": "[2]", "value": 30, "unit": "nM"}, {"measurement": "Ratio", "setting": "[3]", "value": "> 20"}]}
{"smiles": "COc1ccc2c(c1)CN(C(=O)C(C)C)N=C2Cc1c(Cl)cncc1Cl", "values": [{"measurement": "Ki", "setting": "[1]", "value": 498, "unit": "nM"}, {"measurement": "IC50", "setting": "[2]", "value": 25, "unit": "nM"}, {"measurement": "Ratio", "setting": "[3]", "value": 19.9}]}
{"smiles": "COc1ccc2c(c1)CN(C(=O)N(C)C)N=C2Cc1c(Cl)cncc1Cl", "values": [{"measurement": "Ki", "setting": "[1]", "value": 473, "unit": "nM"}, {"measurement": "inhibition", "setting": "[5]", "value": 35, "unit": "%"}]}
{"smiles": "COc1ccc2c(c1OC1CCCC1)CN(S(C)(=O)=O)N=C2Cc1c(Cl)cncc1Cl", "values": [{"measurement": "Ki", "setting": "[1]", "value": 5, "unit": "nM"}, {"measurement": "IC50", "setting": "[2]", "value": 2, "unit": "nM"}, {"measurement": "Ratio", "setting": "[3]", "value": 2.5}]}
{"smiles": "COc1ccc2c(c1)CN(C(=O)NO)N=C2Cc1c(Cl)cncc1Cl", "values": [{"measurement": "Ki", "setting": "[1]", "value": 208, "unit": "nM"}, {"measurement": "IC50", "setting": "[2]", "value": 85, "unit": "nM"}, {"measurement": "Ratio", "setting": "[3]", "value": 2.4}]}
{"smiles": "COc1ccc2c(Cc3c(Cl)cncc3Cl)nncc2c1OC1CCCC1", "values": [{"measurement": "Ratio", "setting": "[3]", "value": 2.8}]}
{"smiles": "COc1ccc2c(Cc3c(Cl)cncc3Cl)nncc2c1", "values": [{"measurement": "Binding", "setting": "[6]", "value": 42, "unit": "%"}, {"measurement": "inhibition", "setting": "[5]", "value": 0, "unit": "%"}]}
{"smiles": "COc1ccc2c(c1)CN(C(N)=O)N=C2Cc1c(Cl)cncc1Cl", "values": [{"measurement": "Ki", "setting": "[1]", "value": 63, "unit": "nM"}, {"measurement": "IC50", "setting": "[2]", "value": 36, "unit": "nM"}, {"measurement": "Ratio", "setting": "[3]", "value": 1.7}]}
{"smiles": "COc1ccc2c(c1)CN(C=O)N=C2Cc1c(Cl)cncc1Cl", "values": [{"measurement": "Ki", "setting": "[1]", "value": 138, "unit": "nM"}, {"measurement": "inhibition", "setting": "[5]", "value": 45, "unit": "%"}]}
{"smiles": "CNC(=O)N1Cc2cc(OC)ccc2C(Cc2c(Cl)cncc2Cl)=N1", "values": [{"measurement": "Ki", "setting": "[1]", "value": 235, "unit": "nM"}, {"measurement": "IC50", "setting": "[2]", "value": 131, "unit": "nM"}, {"measurement": "Ratio", "setting": "[3]", "value": 1.8}]}
{"smiles": "COc1ccc2c(c1)CN(S(C)(=O)=O)N=C2Cc1c(Cl)cncc1Cl", "values": [{"measurement": "Ki", "setting": "[1]", "value": 60, "unit": "nM"}, {"measurement": "IC50", "setting": "[2]", "value": 21, "unit": "nM"}, {"measurement": "Ratio", "setting": "[3]", "value": 2.9}]}
{"smiles": "CCOC(=O)C(=O)N1Cc2cc(OC)ccc2C(Cc2c(Cl)cncc2Cl)=N1", "values": [{"measurement": "Ki", "setting": "[1]", "value": 212, "unit": "nM"}, {"measurement": "IC50", "setting": "[2]", "value": 113, "unit": "nM"}, {"measurement": "Ratio", "setting": "[3]", "value": 1.9}]}
{"smiles": "COc1ccc2c(c1)CN(C(=O)Cc1ccccc1)N=C2Cc1c(Cl)cncc1Cl", "values": [{"measurement": "Binding", "setting": "[4]", "value": 36, "unit": "%"}, {"measurement": "IC50", "setting": "[2]", "value": 12, "unit": "nM"}, {"measurement": "Ratio", "setting": "[3]", "value": "> 20"}]}
{"smiles": "COc1ccc2c(c1)CNN=C2Cc1c(Cl)cncc1Cl", "values": [{"measurement": "Binding", "setting": "[7]", "value": 13, "unit": "%"}, {"measurement": "inhibition", "setting": "[5]", "value": 14, "unit": "%"}]}
{"smiles": "COC(=O)N1Cc2cc(OC)ccc2C(Cc2c(Cl)cncc2Cl)=N1", "values": [{"measurement": "Ki", "setting": "[1]", "value": 199, "unit": "nM"}, {"measurement": "IC50", "setting": "[2]", "value": 72, "unit": "nM"}, {"measurement": "Ratio", "setting": "[3]", "value": 2.8}]}
